Literature values, collected in patent US20050113573A1, “Nitroso compounds to treat ischemia” (priority 2003, published 2005).

Tests used:
[1] = system: platelet adhesion; details: pigs
[2] = system: neointimal proliferation; details: rat
[3] = system: rabbit iliac arteries; details: rabbit iliac arteries after balloon angioplasty
[4] = system: cerebral infarcts; details: versus vehicle treated animals
[5] = system: ischemically injured livers; details: severe ischemia/reperfusion
[6] = 700 stable coronary patients, treated before the angioplasty
[7] = system: smooth muscle cell proliferation; details: pigs
[8] = system: femoral arteries; details: hypercholesterolemic mice, prolonged treatment
[9] = system: intimal proliferation and platelet deposition; details: rabbits, local administration, after vascular arterial balloon injury

**Q.** For `N=c1c[n+](N2CCOCC2)[n-]o1` [3-morpholino-sydnonimine], which “effect on platelet adhesion” value [1] is on record?
**A.** The value was “antiadhesive effects”.

**Q.** Which results are given for `CC(C(=O)OCCCCO[N+](=O)[O-])c1ccc(-c2ccccc2)c(F)c1` (stereo not shown) [HCT-1026]?
**A.** neointimal proliferation [2]: reduction in the neointimal proliferation; nitrite/nitrate plasma levels [2]: increase in nitrite/nitrate plasma levels

**Q.** Which results are given for `N=C(N)NCCC[C@H](N)C(=O)O` [L-arginine]?
**A.** neointimal area [3]: significant reduction of the neointimal area; cerebral infarcts [4]: smaller cerebral infarcts than those in vehicle treated animals; liver function, neutrophil infiltration and animal survival after liver ischemia/reperfusion injury [5]: beneficial for the liver after severe ischemia/reperfusion

**Q.** With `CCOC(=O)[N-]c1cn(N2CCOCC2)n[o+]1` [molsidomine] as the molecule, how does the clinical outcome [6] read?
**A.** Its clinical outcome is “no effect on the clinical outcome”.

**Q.** And the long-term angiographic result [6]?
**A.** The long-term angiographic result was “modest improvement in the long-term angiographic result”.

**Q.** And the neointimal area [3]?
**A.** The neointimal area was “significant reduction of the neointimal area”.

**Q.** And the “smooth muscle cell proliferation following balloon angioplasty” value [7]?
**A.** Its value is “inhibits smooth muscle cell proliferation following balloon angioplasty”.

**Q.** Which “vascular inflammation and apoptosis during vascular remodeling” value [8] does the source give for `CC(=O)Oc1ccccc1C(=O)Oc1cccc(CO[N+](=O)[O-])c1` [nitric oxide releasing aspirin] here?
**A.** The value was “reduced the vascular inflammation and promoted apoptosis”.

**Q.** For “S-nitroso-bovine serum albumin: protein adduct of nitric oxide, locally delivered”, which “intimal proliferation and platelet deposition” value [9] is on record?
**A.** Its value is “inhibited intimal proliferation and platelet deposition”.

**Q.** With “poly thiolated form of bovine serum albumin: poly thiolated form of bovine serum albumin modified to include several S-nitrosothiol groups” as the molecule, how does the “intimal proliferation and platelet deposition” value [9] read?
**A.** The value was “inhibited intimal proliferation and platelet deposition”.
